Values quoted from earlier work as cited in patent US20230158047A1, “METHODS AND COMPOSITIONS FOR TREATING PROSTATE CANCER” (Tavanta Therapeutics Hungary Incorporated, priority 2020, published 2023).

Test system: PSA levels
Details: phase 3, patients who failed prior chemotherapy with taxanes

For `CC(=O)O[C@H]1CC[C@@]2(C)C(=CC[C@@H]3[C@@H]2CC[C@]2(C)C(c4cccnc4)=CC[C@@H]32)C1` [abiraterone acetate, 3β-acetoxy-17-(3-pyridyl)-androsta-5,16-diene], the “patients with at least a 50% decline from baseline in PSA levels” value is given as 38%.
